Values quoted from earlier work in patent publication US5482954A, “Signal transduction inhibitor triazole and diazole compounds” (priority 1994, dated 1996).

System: production of PGE2 and PGF2a
Settings: Honn, et al.; cited from earlier work

COc1ccc2c(c1)c(CC(=O)O)c(C)n2C(=O)c1ccc(Cl)cc1 [indomethacin]
inhibition of phorbol ester-stimulated production of PGE2 and PGF2a: selectively inhibited
